Test results reported in patent publication US20250270209A1 (INTERLINE THERAPEUTICS, INC., priority 2022, published 2025).

Tests used:
[1] = biological target: T1, wild type LRRK2 overexpressed in recombinant HEK-293T cells (Homo sapiens, UniProt Q5S007); test: pS935 LRRK2 Cell Assay (HTRF, phospho-LRRK2 Ser935); format: cell-based; conditions: LRRK2 Inhibition, Table 8, 2 hours compound incubation
T1 construct: host or cells: HEK293T (transient transfection with pCMV-LRRK2 WT plasmid)
How it was run: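 HEK-293T cells transiently transfected with wild-type LRRK2 for 24 h, plated overnight, then treated 2 h at 37° C with compound (top 10 μM, 3-fold, 9 doses, duplicates, 0.2% DMSO). Lysates probed overnight at 23° C by sandwich HTRF for pSer935; 665/615 nm ratio read.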

LRRK2 wild type enzyme = LRRK2 wild type enzyme (Homo sapiens, UniProt Q5S007); test: Biochemical Assay: LRRK2 TR-FRET (LanthaScreen) kinase assay with LRRKtide substrate; conditions: LRRK2 Inhibition, Table 8
How it was run: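 Human wild-type LRRK2 (3 nM) preincubated 15 min with compound (11-point, 3-fold, top 10 μM), then reacted 120 min at 23 °C with 400 nM LRRKtide and 25 μM ATP, pH 8.0. Stopped with EDTA; Tb-anti-pLRRKtide TR-FRET read after 30 min.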

LRRK2 wild type enzyme, sequence (Q5S007 whole entry): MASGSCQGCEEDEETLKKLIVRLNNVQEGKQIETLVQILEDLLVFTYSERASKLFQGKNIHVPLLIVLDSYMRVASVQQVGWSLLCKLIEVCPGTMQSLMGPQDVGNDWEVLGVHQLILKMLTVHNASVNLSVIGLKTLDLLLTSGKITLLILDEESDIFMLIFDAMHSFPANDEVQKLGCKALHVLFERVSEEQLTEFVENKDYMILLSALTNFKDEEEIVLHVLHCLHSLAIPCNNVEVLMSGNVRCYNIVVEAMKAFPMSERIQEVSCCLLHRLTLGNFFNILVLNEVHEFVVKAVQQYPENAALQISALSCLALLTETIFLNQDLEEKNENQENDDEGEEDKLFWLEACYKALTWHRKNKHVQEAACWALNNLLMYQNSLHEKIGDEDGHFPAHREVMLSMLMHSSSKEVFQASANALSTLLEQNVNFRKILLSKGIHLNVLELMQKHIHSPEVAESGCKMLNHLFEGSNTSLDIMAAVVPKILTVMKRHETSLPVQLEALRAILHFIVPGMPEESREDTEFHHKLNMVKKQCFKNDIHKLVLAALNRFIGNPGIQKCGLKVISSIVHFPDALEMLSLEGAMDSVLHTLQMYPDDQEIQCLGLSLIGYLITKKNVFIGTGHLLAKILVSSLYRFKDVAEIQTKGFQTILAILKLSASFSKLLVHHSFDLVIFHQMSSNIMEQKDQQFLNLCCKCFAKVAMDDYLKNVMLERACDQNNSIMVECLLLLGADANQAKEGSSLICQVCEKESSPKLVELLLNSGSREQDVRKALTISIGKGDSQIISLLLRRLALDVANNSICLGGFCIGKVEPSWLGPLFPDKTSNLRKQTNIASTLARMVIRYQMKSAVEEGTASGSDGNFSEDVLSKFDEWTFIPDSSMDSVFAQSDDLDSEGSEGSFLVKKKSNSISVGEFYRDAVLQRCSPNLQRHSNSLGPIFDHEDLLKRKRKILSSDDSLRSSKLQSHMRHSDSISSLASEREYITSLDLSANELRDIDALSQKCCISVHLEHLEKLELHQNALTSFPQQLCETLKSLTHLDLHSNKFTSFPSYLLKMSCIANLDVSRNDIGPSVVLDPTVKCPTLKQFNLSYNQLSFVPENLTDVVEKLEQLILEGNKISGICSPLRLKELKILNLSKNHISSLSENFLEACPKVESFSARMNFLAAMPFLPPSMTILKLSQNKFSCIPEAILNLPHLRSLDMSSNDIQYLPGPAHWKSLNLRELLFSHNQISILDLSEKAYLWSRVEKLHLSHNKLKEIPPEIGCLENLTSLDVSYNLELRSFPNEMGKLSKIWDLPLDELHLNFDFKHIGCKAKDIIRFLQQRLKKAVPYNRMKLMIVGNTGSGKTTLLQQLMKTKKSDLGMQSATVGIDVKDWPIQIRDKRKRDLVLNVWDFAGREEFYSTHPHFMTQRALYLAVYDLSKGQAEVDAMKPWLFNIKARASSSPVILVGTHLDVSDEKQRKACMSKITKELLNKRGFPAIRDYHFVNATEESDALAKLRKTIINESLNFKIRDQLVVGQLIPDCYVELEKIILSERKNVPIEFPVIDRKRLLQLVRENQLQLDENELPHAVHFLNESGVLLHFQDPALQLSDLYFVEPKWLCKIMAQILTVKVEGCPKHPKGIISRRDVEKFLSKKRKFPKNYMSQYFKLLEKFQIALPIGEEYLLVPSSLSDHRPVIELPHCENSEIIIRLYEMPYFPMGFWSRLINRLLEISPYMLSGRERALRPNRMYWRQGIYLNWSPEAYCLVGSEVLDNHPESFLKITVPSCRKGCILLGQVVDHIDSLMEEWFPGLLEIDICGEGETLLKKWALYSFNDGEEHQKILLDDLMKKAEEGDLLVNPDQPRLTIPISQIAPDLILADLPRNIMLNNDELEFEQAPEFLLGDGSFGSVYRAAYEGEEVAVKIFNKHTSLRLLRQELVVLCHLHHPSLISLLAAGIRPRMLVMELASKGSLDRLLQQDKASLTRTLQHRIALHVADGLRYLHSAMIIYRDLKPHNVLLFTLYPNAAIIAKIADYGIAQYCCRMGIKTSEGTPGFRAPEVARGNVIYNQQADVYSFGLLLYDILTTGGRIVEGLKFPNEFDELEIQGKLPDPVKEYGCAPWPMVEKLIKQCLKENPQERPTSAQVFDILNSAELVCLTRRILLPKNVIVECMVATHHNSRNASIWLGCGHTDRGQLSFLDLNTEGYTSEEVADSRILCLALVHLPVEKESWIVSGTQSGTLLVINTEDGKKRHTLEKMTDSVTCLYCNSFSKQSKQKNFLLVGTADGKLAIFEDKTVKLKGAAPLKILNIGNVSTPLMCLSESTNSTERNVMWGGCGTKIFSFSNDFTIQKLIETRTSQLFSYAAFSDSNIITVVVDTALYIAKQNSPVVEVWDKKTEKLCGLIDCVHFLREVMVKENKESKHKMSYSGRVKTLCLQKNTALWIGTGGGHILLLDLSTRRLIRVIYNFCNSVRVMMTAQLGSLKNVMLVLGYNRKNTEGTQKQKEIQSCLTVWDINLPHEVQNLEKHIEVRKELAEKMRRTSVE
T1 sequence (Q5S007 whole entry): as above

Row | Compound | IC50 [1] | IC50 (LRRK2 wild type enzyme)
1 | C[C@@H]1C[C@H](n2c(CC(=O)Nc3cncnc3)nc3cnc4ccc(C#N)cc4c32)CCO1 [Compound 322, N-5-pyrimidinyl{3-[(2R,4R)-2-methyltetrahydro-2H-pyran-4-yl]-12-cyano-3,5,8-triazatricyclo[7.4.0.0^2,6]trideca-1(9),2(6),4,7,10,12-hexaen-4-yl}acetamide] | 32.2 nM | 1.08 nM
2 | C[C@@H]1C[C@H](n2c(CC(=O)NC3CCC3)nc3cnc4ccc(Cl)cc4c32)CCO1 [Compound 332, N-cyclobutyl{3-[(2R,4R)-2-methyltetrahydro-2H-pyran-4-yl]-12-chloro-3,5,8-triazatricyclo[7.4.0.0^2,6]trideca-1(9),2(6),4,7,10,12-hexaen-4-yl}acetamide] | 10.9 nM | 0.741 nM
3 | Cc1ccnc(C)c1NC(=O)Cc1nc2cnc3ccc(Cl)cc3c2n1[C@@H]1CCO[C@H](C)C1 [Compound 210, N-(2,4-dimethyl-3-pyridyl){3-[(2R,4R)-2-methyltetrahydro-2H-pyran-4-yl]-12-chloro-3,5,8-triazatricyclo[7.4.0.0^2,6]trideca-1,4,6,8,10,12-hexaen-4-yl}acetamide] | 7.83 nM | 0.377 nM
4 | Cc1cc(CNC(=O)Cc2nc3cnc4ccc(C#N)cc4c3n2[C@@H]2CCO[C@H](C)C2)no1 [Compound 176, 2-{8-cyano-1-[(2R,4R)-2-methyloxan-4-yl]-1H-imidazo[4,5-c]quinolin-2-yl}-N-[(5-methyl-1,2-oxazol-3-yl)methyl]acetamide] | 5.56 nM | 0.323 nM
5 | Cc1oncc1CNC(=O)Cc1nc2cnc3ccc(C#N)cc3c2n1[C@@H]1CCO[C@H](C)C1 [Compound 179, 2-(8-cyano-1-((2R,4R)-2-methyltetrahydro-2H-pyran-4-yl)-1H-imidazo[4,5-c]quinolin-2-yl)-N-((5-methylisoxazol-4-yl)methyl)acetamide] | 17.1 nM | 0.337 nM
6 | Cc1nocc1NC(=O)Cc1nc2cnc3ccc(C#N)cc3c2n1[C@@H]1CCO[C@H](C)C1 [Compound 238, N-(3-methyl-4-isoxazolyl){3-[(2R,4R)-2-methyltetrahydro-2H-pyran-4-yl]-12-cyano-3,5,8-triazatricyclo[7.4.0.0^2,6]trideca-1,4,6,8,10,12-hexaen-4-yl}acetamide] | 7.15 nM | 0.415 nM
7 | C[C@@H]1C[C@H](n2c(CC(=O)NC3(CO)CC3)nc3cnc4ccc(C#N)cc4c32)CCO1 [Compound 286, N-1-(hydroxymethyl)cyclopropyl{3-[(2R,4R)-2-methyltetrahydro-2H-pyran-4-yl]-12-cyano-3,5,8-triazatricyclo[7.4.0.0^2,6]trideca-1,4,6,8,10,12-hexaen-4-yl}acetamide] | 907 nM | 1.45 nM
8 | C[C@@H]1C[C@H](n2c(C3CCN(CC4CC4)C(=O)C3)nc3cnc4ccc(C#N)cc4c32)CCO1 (stereo partly drawn) [Compound 49, 2-[1-(cyclopropylmethyl)-2-oxopiperidin-4-yl]-1-[(2R,4R)-2-methyloxan-4-yl]-1H-imidazo[4,5-c]quinoline-8-carbonitrile] | 871 nM | 15.3 nM
9 | CC(=O)N1CC[C@H](c2nc3cnc4ccc(C#N)cc4c3n2[C@@H]2CCO[C@H](C)C2)C1 [Compound 43, 2-[(3S)-1-acetylpyrrolidin-3-yl]-1-[(2R,4R)-2-methyloxan-4-yl]-1H-imidazo[4,5-c]quinoline-8-carbonitrile] | 1680 nM | 12.4 nM
10 | C[C@@H]1C[C@H](n2c(C3CN(S(C)(=O)=O)C3)nc3cnc4ccc(C#N)cc4c32)CCO1 [Compound 67, 2-(1-methanesulfonylazetidin-3-yl)-1-[(2R,4R)-2-methyloxan-4-yl]-1H-imidazo[4,5-c]quinoline-8-carbonitrile] | 500 nM | 3.03 nM
11 | C[C@@H]1C[C@H](n2c(CCC(=O)NCC3CC3)nc3cnc4ccc(C#N)cc4c32)CCO1 [Compound 170, 3-{8-cyano-1-[(2R,4R)-2-methyloxan-4-yl]-1H-imidazo[4,5-c]quinolin-2-yl}-N-(cyclopropylmethyl)propanamide] | 329 nM | 3.11 nM
12 | COc1nnccc1NC(=O)Cc1nc2cnc3ccc(C#N)cc3c2n1[C@@H]1CCO[C@H](C)C1 [Compound 222, N-(3-methoxy-4-pyridazinyl){3-[(2R,4R)-2-methyltetrahydro-2H-pyran-4-yl]-12-cyano-3,5,8-triazatricyclo[7.4.0.0^2,6]trideca-1,4,6,8,10,12-hexaen-4-yl}acetamide] | 2.9 nM | 0.263 nM
13 | C[C@@H]1C[C@H](n2c(CC(=O)NC3CC3)nc3cnc4ccc(C#N)cc4c32)CCO1 [Compound 5, 2-{8-cyano-1-[(2R,4R)-2-methyloxan-4-yl]-1H-imidazo[4,5-c]quinolin-2-yl}-N-cyclopropylacetamide] | 35.6 nM | 0.586 nM
14 | CC(=O)NCc1nc2cnc3ccc(C#N)cc3c2n1[C@@H]1CCO[C@H](C)C1 [Compound 23, N-({8-cyano-1-[(2R,4R)-2-methyloxan-4-yl]-1H-imidazo[4,5-c]quinolin-2-yl}methyl)acetamide] | 659 nM | 4.74 nM
